Source: US10285400B2, “Disinfectant composition containing quaternary ammonium compounds” (LONZA, INC., priority 2014, dated 2019)

Key:
[1] = system: Pseudomonas aeruginosa (Pa); test: OECD Quantitative Method for Evaluating Bacterial Activity of Microbiocides Used on Hard Non-Porous Surfaces; assay type: cell-based; details: diluted with 375 ppm hard water, test concentration as in test composition
From the text: (§1) Bardac 2250, containing of 50% didecyldimethylammonium chloride and 10% ethanol from Lonza, was used for the formulations.

[2] = system: Staphylococcus aureus (Sa); test: as above; assay type: cell-based; details: diluted with 375 ppm hard water, test concentration as in test composition
From the text: as §1

SMILES	# Log Reduc. 5 min contact Pa [1]	# Log Reduc. 5 min contact Sa [2]
CCCCCCCCCC[N+](C)(C)CCCCCCCCCC.[Cl-] [Bardac 22, didecyldimethylammonium chloride]	ineffective	ineffective
OO [Sample 1, hydrogen peroxide]	1.6 Log	0.3 Log
OO [Sample 2, hydrogen peroxide]	1.8 Log	3.2 Log
CCCCCCCCCC[N+](C)(C)CCCCCCCCCC.[Cl-] [Sample 3, didecyldimethylammonium chloride]	3.3 Log	
OO [hydrogen peroxide]	ineffective	ineffective
